The record followed here is patent US20240254109A1, “SALT CONTAINING PIPERAZINE POLYCYCLIC DERIVATIVE, CRYSTAL FORM THEREOF, PREPARATION METHOD THEREFOR, AND USE THEREOF” (Shanghai Hansoh Biomedical Co., Ltd., priority 2021, published 2024).

A short description of data set [1]: Study on the salt form of compound (salt forming with counter ion acids). In kind it is physicochemical. The following applies: for Phenomenon after the addition of acid: acid 1:1.2, room temperature. The procedure:
To identify which counter ion acids can form salts with the compound by selecting different counter ion acids.
10 mg of free base was weighed. 200 μL of tetrahydrofuran was added. Different counter ion acids were added separately at room temperature, and the solvent was volatilized to dry. If a solid was precipitated during the reaction, the suspension was centrifuged, and the resulting solid was vacuum dried at 50° C. […] The resulting suspension was centrifuged and the supernatant was removed. The solid was dried in vacuum at 50° C.
10 mg of free base was weighed, and 200 μL of acetone was added. Different counter ion acids were added separately at room temperature, and the solvent was volatilized to dry. If a solid was precipitated, the resulting solid was dried in vacuum overnight at 50° C. […] The resulting suspension was centrifuged, and the supernatant was removed. The solid was dried in vacuum at 50° C.
10 mg of free base compound was weighed, and 100 μL of organic solvent was added to the suspension state. The corresponding acid was added according to the molar ratio of 1:1.2 at room temperature, and the reaction was stirred for 4d. The reaction was centrifuged, and the resulting solid was dried in vacuum at 50° C.

A short description of data set [2]: Study on the crystal form of salt of compound (crystallization with counter ion acids). To be noted: for Phenomenon: base: acid=1:1.2, 25° C.; for Phenomenon after the addition of acid / Results: volatilization method; for Phenomenon after the addition of acid: crystal form B of free base in tetrahydrofuran, base: acid=1:1.2; for Results: tetrahydrofuran volatilized at room temperature. In kind it is physicochemical. As for the experimental part:
To identify which counter ion acids can form crystal form of salt of compound by selecting different counter ion acids according to suitable crystallization methods.
1 mL of the solution was taken into a glass bottle, and different counter ion acids (molar reaction ratio of base: acid=1:1.2) were added, and then the glass bottle was opened at room temperature to volatile solvent. The amorphous or oily was pulped with 200 μL of ethyl acetate.
1) 10 mg of crystal form B of free base was weighed, and 200 μL of methanol solvent was added, and counter ion acid (molar reaction ratio of base: acid=1:1.2) was added respectively at 25° C.
2) 85 mg of crystal form B of free base was weighed, and ethyl acetate was added to produce a clear solution. Different counter ion acids (molar reaction ratio of base: acid=1:1.2) were added respectively at 25° C.

Data set [3] in a line: Pharmacokinetic assay in Balb/c mice (plasma and brain tissue). In kind it is in vivo. The following applies: p.o. 5 mg/kg. As for the experimental part:
(III). Pharmacokinetic Assay in Balb/c Mice
Balb/c mice were used as test animals. The pharmacokinetic behavior in mouse body (plasma and brain tissue) of the compounds of Examples of the present invention was studied at an oral administration dose of 5 mg/kg.
Male Balb/c mice (12 mice per group), purchased from Shanghai Jiesijie Laboratory Animal Co., LTD, with Certificate No.: SCXK (Shanghai) 2013-0006 N0.311620400001794.
The test compound was dissolved in 0.5% CMC-Na (1% Tween80) by sonication to formulate a clear solution or homogeneous suspension.
After an overnight fast, male Balb/c mice (12 mice per group) were administered p.o. with the test compound at an administration dose of 5 mg/kg and an administration volume of 10 mL/kg.
0.2 mL of blood was taken from the heart of the mouse before administration and at 1, 2, 4, 8 and 24 hours after administration, and the mice were sacrificed with CO2. The samples were stored in EDTA-K2 tubes, and centrifuged for 6 minutes at 4° C., 6000 rpm to separate the plasma. The plasma samples were stored at −80° C. Whole brain tissue was taken out, weighed, placed in a 2 mL centrifuge tube, and stored at −80° C.
1) 160 μL of acetonitrile was added to 40 μL of the plasma sample for precipitation, and then the mixture was centrifuged for 5 to 20 minutes at 3500×g.
2) 90 μL of acetonitrile containing internal standard (100 ng/mL) was added to 30 μL of the plasma and brain homogenate sample for precipitation, and then the mixture was centrifuged for 8 minutes at 13000 rpm.
3) 70 μL of water was added to 70 μL of the treated supernatant and mixed by vortex for 10 minutes. 20 μL of the supernatant was taken to analyze the concentration of the test compound by LC/MS/MS. LC/MS/MS analytical instrument: AB Sciex API 4000 Qtrap.
• Liquid chromatography condition: Shimadzu LC-20AD pump • Chromatographic column: Agilent ZORBAX XDB-C18 (50×2.1 mm, […]); Mobile phase: Eluent A was 0.1% formic acid in water, and Eluent B was acetonitrile • Flow rate: 0.4 mL/min • Elution time: 0-4.0 minutes, the eluent is as follows:
The main parameters of pharmacokinetics were calculated by WinNonlin 6.1.

Where [4] appears, read: free base suspended in 100 μL Isopropanol.
Setting [5] is: free base suspended in 100 μL Isopropanol, acid 1:1.2, stirred 4d.

Molecules are shown by their SMILES.

In the case of `CC(=O)O` [Acetic acid], the “Phenomenon after the addition of acid” value in data set [1] (setting [4]) is given as “muddy”. Further, the Product entry in data set [1] (setting [5]) is on record as “Salt forming”.
Regarding `O=C(O)/C=C/C(=O)O` [0.25M fumaric acid in ethanol], the Phenomenon result in data set [2] (solvent Isopropyl ether) was “Turbid”.
As for `CS(=O)(=O)O` [1.0M methanesulfonic acid (in ethanol)], in data set [2], the “Phenomenon after the addition of acid” value is on record as “Clear” and the Results result was “Oil or gel”.
Regarding `Cl` [1.0M hydrochloric acid (in methanol)], the Phenomenon entry in data set [2] (solvent 2-Butanone) is “Clear”; in data set [2] (solvent 2-Methyl-tetrahydrofuran), “Suspension”; in data set [2] (solvent Acetone), “Suspension”; in data set [2] (solvent Ethanol), “Clear”; in data set [2] (solvent Ethyl acetate), “Suspension”; in data set [2] (solvent Ethyl formate), “Precipitation”. Also, the Phenomenon result in data set [2] (solvent Isopropanol), in data set [2] (solvent Isopropyl acetate) and in data set [2] (solvent Methyl tert-butyl ether) was “Suspension” throughout. For the same molecule, the “Phenomenon after the addition of acid” value in data set [2] is “Clear”. Moreover, in data set [2], the Results entry is “Oil or gel”.
As to `CC(=O)O` [1.0M acetic acid (in methanol)], in data set [2], the “Phenomenon after the addition of acid” value is given as “Clear” and the Results entry was “Oil or gel”.
Take `O=C(O)/C=C/C(=O)O` [Fumaric acid]: in data set [1] (setting [4]), the “Phenomenon after the addition of acid” value was “muddy”. Further, in data set [1] (setting [5]), the Product result is recorded as “Salt forming”.
Take `O=C(NC1CC(CCN2CCCN(c3cccc(Cl)c3Cl)CC2)C1)c1ccco1` (stereo not drawn) [Example 25, N-(3-(2-(4-(2,3-Dichlorophenyl)-1,4-diazepan-1-yl)ethyl)cyclobutyl)furan-2-carboxamide]: the Peak time tmax in data set [3] (Brain) and in data set [3] (Plasma) was 1 h in each case.
Turning to `CC(=O)O` [1M acetic acid in methanol], the Phenomenon result in data set [2] (solvent Isopropanol) and in data set [2] (solvent Isopropyl ether) was “Turbid” in each case.
For `CS(=O)(=O)O` [Methanesulfonic acid (1 mol/L in EtOH)], the Product entry in data set [1] (acetone volatilized to dry) is “Gel”. Besides, the “After adding 200 μL of ethyl acetate” value in data set [1] (stirred 4 hours at room temperature) is listed as “Gel”.
On to `Br` [1.0M hydrobromic acid (in methanol)], for which, in data set [2], the “Phenomenon after the addition of acid” value was “Clear” and the Results result was “Oil or gel”.
Consider `O=C(NC1CC(CCN2CCN(c3cccc(Cl)c3Cl)CC2)C1)c1ncco1` (stereo not drawn) [Example 12, N-(3-(2-(4-(2,3-Dichlorophenyl)piperazin-1-yl)ethyl)cyclobutyl)oxazole-2-carboxamide], for which the Peak time tmax in data set [3] (Brain) worked out at 1 h; in data set [3] (Plasma) it was 0.5 h.
